Test results taken from ChEMBL document CHEMBL4507264, “Data for DCP probe BAY-7598” (2021).

Legend:
[1] = molecular target: Activin receptor type-2A (Homo sapiens) (UniProt P27037); conditions: Compound concentration 1000.0 nM
[2] = test system: Serine/threonine-protein kinase B-raf (Homo sapiens), P15056 [V600E]; conditions: Compound concentration 1000.0 nM
[3] = molecular target: Cyclin-dependent kinase 11A (Homo sapiens) (UniProt Q9UQ88); conditions: Compound concentration 1000.0 nM
[4] = molecular target: Cyclin-dependent kinase 2 (Homo sapiens) (UniProt P24941); conditions: Compound concentration 1000.0 nM
[5] = molecular target: Cyclin-dependent kinase 4 (Homo sapiens) (UniProt P11802); conditions: Compound concentration 1000.0 nM
[6] = molecular target: Cyclin-dependent kinase 5 (Homo sapiens) (UniProt Q00535); conditions: Compound concentration 1000.0 nM
Chain of Cyclin-dependent kinase 5 (Homo sapiens) (Q00535 whole entry, looked up): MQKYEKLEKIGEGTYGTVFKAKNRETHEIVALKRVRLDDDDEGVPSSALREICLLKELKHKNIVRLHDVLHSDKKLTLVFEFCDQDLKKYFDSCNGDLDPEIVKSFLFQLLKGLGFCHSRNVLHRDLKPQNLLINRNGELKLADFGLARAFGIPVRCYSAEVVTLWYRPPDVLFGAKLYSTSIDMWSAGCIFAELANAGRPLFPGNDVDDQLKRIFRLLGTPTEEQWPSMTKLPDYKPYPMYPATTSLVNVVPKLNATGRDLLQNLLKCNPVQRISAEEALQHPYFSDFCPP

[7] = molecular target: Cyclin-dependent kinase-like 1 (Homo sapiens) (UniProt Q00532); conditions: Compound concentration 1000.0 nM
[8] = molecular target: Serine/threonine-protein kinase Chk1 (Homo sapiens) (UniProt O14757); conditions: Compound concentration 1000.0 nM
Chain of Serine/threonine-protein kinase Chk1 (Homo sapiens) (O14757 whole entry): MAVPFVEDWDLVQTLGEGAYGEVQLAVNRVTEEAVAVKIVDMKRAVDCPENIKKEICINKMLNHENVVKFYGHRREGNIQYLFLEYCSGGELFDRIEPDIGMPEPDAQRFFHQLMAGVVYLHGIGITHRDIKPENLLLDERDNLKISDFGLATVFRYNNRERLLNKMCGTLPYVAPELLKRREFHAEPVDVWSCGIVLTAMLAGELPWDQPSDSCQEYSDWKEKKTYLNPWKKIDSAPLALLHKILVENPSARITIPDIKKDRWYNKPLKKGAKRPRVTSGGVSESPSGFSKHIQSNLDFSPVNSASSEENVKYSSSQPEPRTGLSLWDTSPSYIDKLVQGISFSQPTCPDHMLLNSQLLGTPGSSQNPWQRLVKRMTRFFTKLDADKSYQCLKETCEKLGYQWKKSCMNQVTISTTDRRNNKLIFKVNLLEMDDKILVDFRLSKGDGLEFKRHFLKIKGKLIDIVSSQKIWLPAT

[9] = molecular target: Macrophage colony-stimulating factor 1 receptor (Homo sapiens) (UniProt P07333); conditions: Compound concentration 1000.0 nM
[10] = molecular target: Serine/threonine-protein kinase DCLK3 (Homo sapiens) (UniProt Q9C098); conditions: Compound concentration 1000.0 nM
[11] = molecular target: Serine/threonine-protein kinase 17A (Homo sapiens) (UniProt Q9UEE5); conditions: Compound concentration 1000.0 nM
[12] = molecular target: Dual specificity tyrosine-phosphorylation-regulated kinase 1A (Homo sapiens) (UniProt Q13627); conditions: Compound concentration 1000.0 nM
[13] = molecular target: Ephrin type-A receptor 5 (Homo sapiens) (UniProt P54756); conditions: Compound concentration 1000.0 nM
Chain of Ephrin type-A receptor 5 (Homo sapiens) (P54756 whole entry): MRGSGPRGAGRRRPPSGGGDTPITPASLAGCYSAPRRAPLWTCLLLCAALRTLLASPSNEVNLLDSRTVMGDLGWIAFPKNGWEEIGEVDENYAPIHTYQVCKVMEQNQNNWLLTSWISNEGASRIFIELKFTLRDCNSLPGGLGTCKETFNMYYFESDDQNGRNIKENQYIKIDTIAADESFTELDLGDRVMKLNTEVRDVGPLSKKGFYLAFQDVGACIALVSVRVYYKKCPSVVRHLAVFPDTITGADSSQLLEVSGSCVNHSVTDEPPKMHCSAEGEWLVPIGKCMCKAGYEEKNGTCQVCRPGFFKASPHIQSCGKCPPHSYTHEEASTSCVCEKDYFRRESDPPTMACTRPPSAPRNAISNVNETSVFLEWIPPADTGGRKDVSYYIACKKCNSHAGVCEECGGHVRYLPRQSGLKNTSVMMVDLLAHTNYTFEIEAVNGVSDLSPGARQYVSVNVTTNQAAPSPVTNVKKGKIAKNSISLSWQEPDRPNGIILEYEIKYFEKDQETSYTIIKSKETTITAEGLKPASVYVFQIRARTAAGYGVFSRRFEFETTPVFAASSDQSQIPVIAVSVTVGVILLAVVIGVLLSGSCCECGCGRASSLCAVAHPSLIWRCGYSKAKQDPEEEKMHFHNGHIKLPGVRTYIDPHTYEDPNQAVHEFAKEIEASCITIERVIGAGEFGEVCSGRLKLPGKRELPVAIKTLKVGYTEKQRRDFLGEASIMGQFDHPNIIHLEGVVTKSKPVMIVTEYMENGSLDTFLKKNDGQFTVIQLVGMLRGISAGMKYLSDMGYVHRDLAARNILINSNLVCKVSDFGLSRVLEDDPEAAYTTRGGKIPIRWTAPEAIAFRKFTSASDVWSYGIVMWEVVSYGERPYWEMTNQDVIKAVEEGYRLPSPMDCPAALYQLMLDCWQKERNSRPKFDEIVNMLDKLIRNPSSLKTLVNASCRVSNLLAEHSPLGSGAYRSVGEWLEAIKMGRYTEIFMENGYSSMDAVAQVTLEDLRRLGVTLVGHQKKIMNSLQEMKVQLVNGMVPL

[14] = test system: Receptor-type tyrosine-protein kinase FLT3 (Homo sapiens), P36888 [D835H]; conditions: Compound concentration 1000.0 nM
[15] = test system: Receptor-type tyrosine-protein kinase FLT3 (Homo sapiens), P36888 [D835V]; conditions: Compound concentration 1000.0 nM
[16] = molecular target: Vascular endothelial growth factor receptor 3 (Homo sapiens) (UniProt P35916); conditions: Compound concentration 1000.0 nM
[17] = molecular target: Tyrosine-protein kinase FRK (Homo sapiens) (UniProt P42685); conditions: Compound concentration 1000.0 nM
[18] = molecular target: G protein-coupled receptor kinase 4 (Homo sapiens) (UniProt P32298); conditions: Compound concentration 1000.0 nM
Chain of G protein-coupled receptor kinase 4 (Homo sapiens) (P32298 whole entry, looked up): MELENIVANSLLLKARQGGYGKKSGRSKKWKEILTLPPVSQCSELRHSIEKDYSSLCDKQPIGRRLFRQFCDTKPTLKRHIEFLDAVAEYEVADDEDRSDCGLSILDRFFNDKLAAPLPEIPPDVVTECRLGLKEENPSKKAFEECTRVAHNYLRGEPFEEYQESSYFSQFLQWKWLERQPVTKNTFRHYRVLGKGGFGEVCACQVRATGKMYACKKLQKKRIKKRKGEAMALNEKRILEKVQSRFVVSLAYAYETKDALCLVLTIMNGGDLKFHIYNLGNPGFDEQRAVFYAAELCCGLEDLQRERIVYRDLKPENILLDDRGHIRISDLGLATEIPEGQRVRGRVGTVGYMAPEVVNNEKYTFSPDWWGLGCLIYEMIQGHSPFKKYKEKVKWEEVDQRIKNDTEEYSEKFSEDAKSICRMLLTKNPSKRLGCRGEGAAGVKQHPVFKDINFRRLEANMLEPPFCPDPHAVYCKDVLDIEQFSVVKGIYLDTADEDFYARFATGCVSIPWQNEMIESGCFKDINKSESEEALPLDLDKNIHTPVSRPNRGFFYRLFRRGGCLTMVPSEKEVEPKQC

[19] = molecular target: Tyrosine-protein kinase JAK1 (Homo sapiens) (UniProt P23458); conditions: Compound concentration 1000.0 nM
[20] = test system: Mast/stem cell growth factor receptor Kit (Homo sapiens), P10721 [L576P]; conditions: Compound concentration 1000.0 nM
[21] = test system: Mast/stem cell growth factor receptor Kit (Homo sapiens), P10721 [V559D]; conditions: Compound concentration 1000.0 nM
[22] = molecular target: Myosin light chain kinase, smooth muscle (Homo sapiens) (UniProt Q15746); conditions: Compound concentration 1000.0 nM
[23] = molecular target: Mitogen-activated protein kinase kinase kinase 14 (Homo sapiens) (UniProt Q99558); conditions: Compound concentration 1000.0 nM
Chain of Mitogen-activated protein kinase kinase kinase 14 (Homo sapiens) (Q99558 whole entry, looked up): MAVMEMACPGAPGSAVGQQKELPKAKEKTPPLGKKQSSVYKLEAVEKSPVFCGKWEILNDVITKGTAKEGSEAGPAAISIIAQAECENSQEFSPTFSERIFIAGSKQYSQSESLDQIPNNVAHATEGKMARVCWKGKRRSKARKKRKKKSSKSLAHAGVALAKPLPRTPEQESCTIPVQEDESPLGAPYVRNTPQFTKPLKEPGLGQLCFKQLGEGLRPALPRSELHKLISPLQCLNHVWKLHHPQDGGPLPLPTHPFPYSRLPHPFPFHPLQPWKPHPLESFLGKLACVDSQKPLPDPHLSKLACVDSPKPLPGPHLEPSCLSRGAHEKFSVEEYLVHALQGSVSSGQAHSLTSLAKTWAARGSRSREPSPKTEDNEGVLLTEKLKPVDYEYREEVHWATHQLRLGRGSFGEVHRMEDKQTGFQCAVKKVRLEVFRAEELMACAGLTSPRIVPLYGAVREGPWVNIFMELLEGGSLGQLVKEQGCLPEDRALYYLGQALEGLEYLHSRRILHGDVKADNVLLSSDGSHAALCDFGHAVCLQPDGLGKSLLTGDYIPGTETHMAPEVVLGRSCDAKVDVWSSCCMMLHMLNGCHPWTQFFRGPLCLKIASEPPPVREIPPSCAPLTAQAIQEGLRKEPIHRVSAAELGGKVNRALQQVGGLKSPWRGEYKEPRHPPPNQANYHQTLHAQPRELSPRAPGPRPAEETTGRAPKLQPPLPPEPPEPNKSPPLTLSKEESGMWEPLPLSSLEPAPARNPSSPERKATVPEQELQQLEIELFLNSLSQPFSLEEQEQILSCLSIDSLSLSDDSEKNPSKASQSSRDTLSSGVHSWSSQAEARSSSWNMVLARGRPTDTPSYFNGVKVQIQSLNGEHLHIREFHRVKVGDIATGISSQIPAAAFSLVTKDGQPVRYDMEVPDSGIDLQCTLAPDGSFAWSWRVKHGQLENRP

[24] = molecular target: Serine/threonine-protein kinase NLK (Homo sapiens) (UniProt Q9UBE8); conditions: Compound concentration 1000.0 nM
[25] = molecular target: Mitogen-activated protein kinase 12 (Homo sapiens) (UniProt P53778); conditions: Compound concentration 1000.0 nM
[26] = molecular target: Phosphatidylinositol 4-phosphate 5-kinase type-1 alpha (Homo sapiens) (UniProt Q99755); conditions: Compound concentration 1000.0 nM
[27] = molecular target: Serine/threonine-protein kinase PknB (Mycobacterium tuberculosis) (UniProt P9WI81); conditions: Compound concentration 1000.0 nM
[28] = molecular target: Protein kinase C epsilon type (Homo sapiens) (UniProt Q02156); conditions: Compound concentration 1000.0 nM
[29] = test system: Proto-oncogene tyrosine-protein kinase receptor Ret (Homo sapiens), P07949 [V804L]; conditions: Compound concentration 1000.0 nM
[30] = molecular target: Mitogen-activated protein kinase kinase kinase 7 (Homo sapiens) (UniProt O43318); conditions: Compound concentration 1000.0 nM
[31] = molecular target: Dual specificity testis-specific protein kinase 1 (Homo sapiens) (UniProt Q15569); conditions: Compound concentration 1000.0 nM
Chain of Dual specificity testis-specific protein kinase 1 (Homo sapiens) (Q15569 whole entry, looked up): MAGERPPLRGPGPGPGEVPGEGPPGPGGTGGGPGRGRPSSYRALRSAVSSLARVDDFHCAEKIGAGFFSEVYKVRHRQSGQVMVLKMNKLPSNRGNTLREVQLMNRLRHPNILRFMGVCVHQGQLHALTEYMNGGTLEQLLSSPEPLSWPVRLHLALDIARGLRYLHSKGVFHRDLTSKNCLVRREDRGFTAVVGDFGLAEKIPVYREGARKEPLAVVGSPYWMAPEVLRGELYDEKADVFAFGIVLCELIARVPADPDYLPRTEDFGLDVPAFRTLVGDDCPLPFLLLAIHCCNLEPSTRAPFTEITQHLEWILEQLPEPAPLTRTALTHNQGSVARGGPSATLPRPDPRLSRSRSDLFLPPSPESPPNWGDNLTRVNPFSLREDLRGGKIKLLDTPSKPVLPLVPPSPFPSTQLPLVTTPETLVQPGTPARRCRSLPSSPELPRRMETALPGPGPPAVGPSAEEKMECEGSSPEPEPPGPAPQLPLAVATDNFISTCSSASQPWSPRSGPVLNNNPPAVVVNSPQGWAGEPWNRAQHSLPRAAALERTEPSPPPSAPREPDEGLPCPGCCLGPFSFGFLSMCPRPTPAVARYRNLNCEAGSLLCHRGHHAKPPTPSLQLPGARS

[32] = molecular target: Dual specificity protein kinase TTK (Homo sapiens) (UniProt P33981); conditions: Compound concentration 1000.0 nM
Chain of Dual specificity protein kinase TTK (Homo sapiens) (P33981 whole entry): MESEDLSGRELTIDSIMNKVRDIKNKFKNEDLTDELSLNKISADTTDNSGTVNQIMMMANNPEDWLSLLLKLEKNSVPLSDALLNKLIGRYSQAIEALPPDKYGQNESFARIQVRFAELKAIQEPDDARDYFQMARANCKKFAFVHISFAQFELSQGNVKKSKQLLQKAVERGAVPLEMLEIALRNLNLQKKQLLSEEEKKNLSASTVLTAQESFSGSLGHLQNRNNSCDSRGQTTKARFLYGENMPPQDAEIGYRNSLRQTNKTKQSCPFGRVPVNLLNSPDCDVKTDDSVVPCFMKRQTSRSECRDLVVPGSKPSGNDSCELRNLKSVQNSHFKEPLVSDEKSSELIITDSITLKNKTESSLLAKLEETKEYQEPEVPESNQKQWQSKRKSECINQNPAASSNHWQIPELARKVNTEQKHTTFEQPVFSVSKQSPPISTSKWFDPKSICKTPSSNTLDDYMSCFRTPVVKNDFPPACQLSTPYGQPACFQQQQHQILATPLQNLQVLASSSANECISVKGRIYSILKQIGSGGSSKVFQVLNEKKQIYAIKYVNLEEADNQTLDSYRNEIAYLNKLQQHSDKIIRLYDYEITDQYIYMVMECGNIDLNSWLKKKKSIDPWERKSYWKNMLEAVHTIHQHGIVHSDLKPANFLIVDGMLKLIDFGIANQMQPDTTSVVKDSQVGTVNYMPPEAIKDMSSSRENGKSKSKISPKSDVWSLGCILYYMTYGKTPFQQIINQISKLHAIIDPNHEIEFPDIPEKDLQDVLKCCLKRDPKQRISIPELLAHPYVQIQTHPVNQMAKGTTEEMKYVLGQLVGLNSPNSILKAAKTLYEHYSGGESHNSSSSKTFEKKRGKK

[33] = molecular target: Tyrosine-protein kinase receptor TYRO3 (Homo sapiens) (UniProt Q06418); conditions: Compound concentration 1000.0 nM
[34] = molecular target: Serine/threonine-protein kinase ULK2 (Homo sapiens) (UniProt Q8IYT8); conditions: Compound concentration 1000.0 nM
[35] = molecular target: Serine/threonine-protein kinase WNK1 (Homo sapiens) (UniProt Q9H4A3); conditions: Compound concentration 1000.0 nM
[36] = molecular target: 5-hydroxytryptamine receptor 6 (Homo sapiens) (UniProt P50406); conditions: Compound concentration 10.0 uM
[37] = molecular target: T1, Alpha-1D adrenergic receptor (Homo sapiens) (UniProt P25100); conditions: Compound concentration 10.0 uM
T1 sequence (whole entry): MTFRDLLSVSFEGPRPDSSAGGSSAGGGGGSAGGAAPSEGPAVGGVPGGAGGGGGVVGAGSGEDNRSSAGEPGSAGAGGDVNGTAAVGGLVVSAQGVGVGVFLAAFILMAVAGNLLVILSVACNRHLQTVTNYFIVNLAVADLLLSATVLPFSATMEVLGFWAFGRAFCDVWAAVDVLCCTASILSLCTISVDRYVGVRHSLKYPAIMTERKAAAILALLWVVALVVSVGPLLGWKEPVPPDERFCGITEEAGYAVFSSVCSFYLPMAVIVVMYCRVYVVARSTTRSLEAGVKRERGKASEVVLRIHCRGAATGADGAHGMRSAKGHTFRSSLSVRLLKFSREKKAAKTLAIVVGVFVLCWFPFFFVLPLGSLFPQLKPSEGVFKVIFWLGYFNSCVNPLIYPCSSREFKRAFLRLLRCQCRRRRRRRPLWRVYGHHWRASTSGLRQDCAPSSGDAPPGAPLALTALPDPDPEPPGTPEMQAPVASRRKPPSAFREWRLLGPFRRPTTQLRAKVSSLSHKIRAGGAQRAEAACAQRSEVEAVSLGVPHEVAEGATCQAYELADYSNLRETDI

O=C(O)[C@@H]1[C@@H](Cn2nnc3ccccc3c2=O)CC[C@H]1C(=O)c1ccc(OCCC2CCOCC2)cc1 [BAY-694]
inactive: residual activity [1] 100% | residual activity [2] 100% | residual activity [3] 91% | residual activity [4] 100% | residual activity [5] 83% | residual activity [6] 81% | residual activity [7] 100% | residual activity [8] 100% | residual activity [9] 100% | residual activity [10] 100% | residual activity [11] 98% | residual activity [12] 94% | residual activity [13] 94% | residual activity [14] 83% | residual activity [15] 93% | residual activity [16] 100% | residual activity [17] 89% | residual activity [18] 100% | residual activity [19] 100% | residual activity [20] 100% | residual activity [21] 100% | residual activity [22] 100% | residual activity [23] 100% | residual activity [24] 86% | residual activity [25] 100% | residual activity [26] 94% | residual activity [27] 94% | residual activity [28] 100% | residual activity [29] 94% | residual activity [30] 86% | residual activity [31] 94% | residual activity [32] 89% | residual activity [33] 100% | residual activity [34] 90% | residual activity [35] 100% | inhibition [36] 26.9% | inhibition [37] 0.08%

O=C(O)[C@H]1[C@H](Cn2nnc3ccccc3c2=O)CC[C@@H]1C(=O)c1ccc(OCCC2CCOCC2)cc1 [BAY-7598]
inactive: residual activity [1] 87% | residual activity [2] 100% | residual activity [3] 92% | residual activity [4] 100% | residual activity [5] 89% | residual activity [6] 100% | residual activity [7] 99% | residual activity [8] 100% | residual activity [9] 81% | residual activity [10] 98% | residual activity [11] 97% | residual activity [12] 85% | residual activity [13] 100% | residual activity [14] 72% | residual activity [15] 92% | residual activity [16] 81% | residual activity [17] 100% | residual activity [18] 82% | residual activity [19] 100% | residual activity [20] 96% | residual activity [21] 100% | residual activity [22] 74% | residual activity [23] 85% | residual activity [24] 100% | residual activity [25] 93% | residual activity [26] 88% | residual activity [27] 77% | residual activity [28] 100% | residual activity [29] 77% | residual activity [30] 100% | residual activity [31] 100% | residual activity [32] 83% | residual activity [33] 100% | residual activity [34] 100% | residual activity [35] 100% | inhibition [36] 16.6% | inhibition [37] 0.59%
